Assay [1] has as its system Per2 promoter (PPer2) activity, Rat-1 fibroblasts. In words: Luminescence assay of circadian rhythmicity, Rat-1 fibroblasts PPer2::Fluc. Format: cell-based. The conditions noted are these: 10 μM, left continuously, monitored 4 days. On the procedure:
FIGS. 3a and 3b: the alteration of the circadian period in mammalian fibroblasts by the indirubin derivatives. Rat-1 fibroblasts stably transfected with a PPer2::Fluc reporter construct show a robust circadian rhythm of luminescence as a gauge of clock-controlled Per2 promoter (PPer2) activity. Cells were cultured up to 100% confluence and treated for 2 h with 0.1 μM dexamethasone to synchronize the oscillators. The medium was then replaced with assay medium supplemented with 0.1 mM luciferin and the luminescence rhythm was monitored for 4 days or more. Compounds were added to the culture dishes at 10 μM and left continuously. DMSO was used as a solvent control. Regression analyses were used to determine period and phase of the luminescence rhythms. 3a. Time-course of a typical luminescence rhythm recorded in control cells (◯) or cells treated with indirubin 15 (•). White arrows indicate the peaks of luminescence in control cells, black arrows indicate the peaks of luminescence in indirubin 15 treated cells. 3b. Period lengths calculated in cells exposed to various compounds. C, control; K, kenpaullone.
The cells were cultured in DMEM (11965-092, GIBCO/Invitrogen) supplemented with 5% FBS, 50 units/ml penicillin, and 50 μg/ml streptomycin in a 5% CO2 incubator at 37° C. […] The luminescence rhythm was monitored in a LumiCycle (Actimetrics Inc., Evanston, Ill., USA). […]

The target of a further assay is CDK5/p25 (Homo sapiens, UniProt Q00535). In words: CDK5/p25 kinase assay (histone H1, 15 μM ATP). Format: biochemical. The conditions noted are these: 30° C., 30 min. Here is the method:
(§1) Blank values were subtracted and activities calculated as pmoles of phosphate incorporated during a […] incubation. The activities were expressed in % of the maximal activity, i.e. in the absence of inhibitors. Controls were performed with appropriate dilutions of dimethylsulfoxide. Phosphorylation of the substrate was assessed by the P81 phosphocellulose assay.
CDK5/p25 was reconstituted by mixing equal amounts of recombinant human CDK5 and p25 expressed in E. coli as GST (Glutathione-S-transferase) fusion proteins and purified by affinity chromatography on glutathione-agarose (p25 is a truncated version of p35, the 35 kDa CDK5 activator). Its activity was assayed with histone H1 in buffer C as described for CDK1/cyclin B.

A further assay deals with CDK1/cyclin B. In words: CDK1/cyclin B kinase assay (histone H1, 15 μM ATP). The conditions noted are these: 30° C., 30 min. Format: biochemical, starfish (Marthasterias glacialis).
The next assay deals with GSK-3α/β. In words: GSK-3α/β kinase assay (GS-1 substrate, 15 μM ATP). Format: biochemical, porcine. To be noted: 30° C., 30 min, read-out: GSK3 IC50. Here is the method: as §1
GSK-3α/β was purified from porcine brain by affinity chromatography on immobilized axin^5. […] ATP (3,000 Ci/mmol; 10 mCi/ml) in a final volume of 30 μl. After 30 min. incubation at 30° C., 25 μl aliquots of supernatant were processed as described above.

The structures appear in SMILES notation.

Sequence of CDK5/p25 (Q00535 whole entry): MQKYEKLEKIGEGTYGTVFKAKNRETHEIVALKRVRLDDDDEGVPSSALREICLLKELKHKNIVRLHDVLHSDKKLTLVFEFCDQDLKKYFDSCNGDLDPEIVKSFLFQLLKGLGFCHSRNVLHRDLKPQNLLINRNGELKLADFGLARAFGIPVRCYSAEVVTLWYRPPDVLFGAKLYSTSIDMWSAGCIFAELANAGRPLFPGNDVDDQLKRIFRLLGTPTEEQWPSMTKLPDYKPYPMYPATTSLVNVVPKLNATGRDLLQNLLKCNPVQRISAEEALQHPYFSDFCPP
Sequence of CDK5/p25 (Q15078 99-307 partner limits assumed): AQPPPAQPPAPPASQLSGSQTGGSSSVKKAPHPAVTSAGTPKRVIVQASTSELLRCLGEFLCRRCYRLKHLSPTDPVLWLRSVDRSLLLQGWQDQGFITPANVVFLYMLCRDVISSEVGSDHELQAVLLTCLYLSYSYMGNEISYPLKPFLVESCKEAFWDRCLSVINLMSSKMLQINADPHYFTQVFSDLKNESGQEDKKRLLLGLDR

Consider `O=C1Nc2cc(Br)ccc2/C1=C1/Nc2ccccc2/C1=N\OCCN1CCN(CCOCCO)CC1` [Cpd 15, (2′Z-3′E)-6-Bromoindirubin-3′-[O-(2-{4-[2-(2-hydroxyethoxy)-ethyl]piperazin-1-yl}ethyl)oxime]], for which the “Circadian period length of luminescence rhythm” value in assay [1] was “gradual shortening of the period length”. Besides, the IC50 is 310 nM on CDK5/p25, 900 nM at CDK1/cyclin B and 14 nM at GSK-3α/β.

(Values after patent US8829203B2, “3′,6-substituted indirubins and their biological applications” (Centre National de la Recherche Scientifique (CNRS), priority 2008, dated 2014).)
